Reference: patent publication US20220267376A1, “P53 ACTIVATOR PEPTIDOMIMETIC MACROCYCLES” (Merck Sharp & Dohme Corp., priority 2019, published 2022)
“Also recorded” adds a separate entry of the source. Where two headings read alike, the source gives them in different places. Positions of bridges follow the written chain, without caps; N, C: chain ends. Non-standard residues stand in square brackets, D forms with d. Residues, ends and D or L forms follow the SMILES beside them. No end group written: not given here. dPhe(4-CF3) = N[C@H](Cc1ccc(C(F)(F)F)cc1)C(=O)O; dTrp(6-F) = N[C@H](Cc1c[nH]c2cc(F)ccc12)C(=O)O; S8 = C=CCCCCCC[C@](C)(N)C(=O)O; R5 = C=CCCC[C@@](C)(N)C(=O)O; S5 = C=CCCC[C@](C)(N)C(=O)O

T1: MDM4 (Homo sapiens, UniProt O15151)
T1 construct: GST; made in house
T1 sequence (O15151 1-490): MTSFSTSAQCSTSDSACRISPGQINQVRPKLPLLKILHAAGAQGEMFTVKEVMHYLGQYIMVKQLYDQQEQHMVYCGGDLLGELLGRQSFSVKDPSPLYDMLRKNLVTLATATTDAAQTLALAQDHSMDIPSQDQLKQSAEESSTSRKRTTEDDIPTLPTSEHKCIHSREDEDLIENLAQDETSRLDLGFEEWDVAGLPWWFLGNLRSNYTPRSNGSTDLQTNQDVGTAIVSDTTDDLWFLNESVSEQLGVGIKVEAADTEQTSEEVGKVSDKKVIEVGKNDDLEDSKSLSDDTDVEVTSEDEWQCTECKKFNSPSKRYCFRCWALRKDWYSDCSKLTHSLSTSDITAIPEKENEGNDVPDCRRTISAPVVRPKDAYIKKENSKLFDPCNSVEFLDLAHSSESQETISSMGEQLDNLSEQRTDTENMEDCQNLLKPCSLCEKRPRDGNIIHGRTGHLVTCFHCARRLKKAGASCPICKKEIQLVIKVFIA


Tests used:
[1] = test system: HCT116 p53 reporter cells; assay: p53 beta-lactamase reporter gene assay; format: cell-based; conditions: for p53 activation in reporter cells: 16 hours, up to 50 μM; for EC50: read-out: P53 activity EC50 (μM) (2% FBS) 16 H, HCT116 p53 reporter, 2% FBS, 16 H
Experimental: The cells were incubated overnight and followed by removal of cell growth media and replaced with Opti-MEM either containing 0% FBS or 10% FBS. […] Measurements were done using Envision multiplate reader (Perkin-Elmer).

[2] = Circular dichroism (CD) helicity of peptide in solution; format: physicochemical; conditions: 25° C.
Experimental: Prior to the experiment, 5 μl of the 10 mM stock peptide was mixed with 45 μl of 100% methanol, and dried for 2 hours in the SpeedVac concentrator (Thermo Scientific). The dried peptide was reconstituted in buffer, containing 1 mM HEPES pH 7.4 and 5% methanol, to a concentration of 1 mM. The peptide sample was placed in a quartz cuvette with a path length of 0.2 cm and the CD spectrum was recorded from 300 to 190 nm at 25° C., using the Chirascan-plus qCD machine (Applied Photophysics). […] An estimate of the secondary stmcture components of the peptide was carried out by converting the CD spectrum to mean residue ellipticity, before deconvoluting using the CDNN software (distributed by Applied Photophysics). All experiments were done in duplicates.

[3] = biological target: T2, human MDM2 protein (amino acids 1-125) (Homo sapiens, UniProt Q00987); assay: Isothermal titration calorimetry (ITC) with MDM2; format: binding; parameters: purified recombinant human MDM2 protein (amino acids 1-125); GST (N); His6 (N); TEV cleavage site ENLYFQG (N); made in house; host or cells: E. coli BL21 (DE3) Rosetta T1R; conditions: for ITC TΔS / ITC ΔG: binding to MDM2; for ITC ΔH: enthalpy of binding to MDM2
Target sequence in this assay (Q00987 1-125): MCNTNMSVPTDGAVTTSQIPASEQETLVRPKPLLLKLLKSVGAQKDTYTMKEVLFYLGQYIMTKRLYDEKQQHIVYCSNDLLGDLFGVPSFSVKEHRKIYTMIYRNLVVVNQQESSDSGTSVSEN
Experimental: All experiments were performed in duplicates using the MicroCal PEAQ-ITC Automated system. […] For peptides that are insoluble at high concentrations, reverse ITC was carded out by titrating 200 μM of MDM2 protein into 20 μM of peptide. […] Data analysis was carried out using the MicroCal PEAQ-ITC Analysis Software.

MDM2 [4] = biological target: T3, MDM2 (Homo sapiens, UniProt Q00987); assay: Surface plasmon resonance (SPR) binding to MDM2; conditions: for Kd: MDM2
T3 construct: GST (N); His6 (N); made in house; host or cells: E. coli BL21 (DE3) Rosetta T1R

MDM2 [5] = biological target: T3, MDM2; assay: MDM2 binding assay, fluorescence polarization (FP) competition
MDM4 = biological target: T1, MDM4; assay: Fluorescence polarization (FP) binding to MDM4/MDMX; conditions: for Kd: FP assay, MDM4 (MDMX)
HCT116 cells = assay: Lactate dehydrogenase (LDH) release assay; format: cell-based; conditions: up to 50 μM
Experimental: The cells were incubated overnight followed by removal of cell media and addition of Opti-MEM Medium without FBS. Cells were then treated with peptides for 4/16 hours in Opti-MEM either in 10% FBS or serum free. Final concentration of DMSO was 0.5%. […] Measurements were carried out using Tecan plate reader.

[6] = test system: Jump-In™ T-REx™ CHO-K1 BLA cells; assay: Tetracycline beta-lactamase reporter gene assay (counterscreen); format: cell-based; conditions: for EC50: read-out: Counterscreen EC50 (μM) (2% FBS) 16 H, 2% FBS, 16 H
Experimental: Cells were seeded into a 384-well plate a density of 4000 cells per well. […] Measurements were carried out using Envision multiplate reader (Perkin-Elmer).

[7] = biological target: T2, human MDM2 protein (amino acids 1-125); assay: cell-based or functional assay
Target sequence in this assay (Q00987 1-125 limits assumed): as the sequence (Q00987 1-125) above

CD (% helicity) [2] [%]	Kd (MDM2 [4]; Table 1) [nM]	EC50 [1] [µM]	Kd (MDM2 [4]; Table 2) [nM]	Kd (MDM4) [nM]	Molecule	p53 activation in reporter cells [1]	ITC TΔS [3] [kcal/mol]	ITC ΔG [3] [kcal/mol]	ITC ΔH [3] [kcal/mol]	binding to MDM2 in FP assay (MDM2 [5])	binding to MDMX in FP assay (MDM4)	counterscreen activity [6]	EC50 [6] [µM]	also measured
–	–	–	–	–	CC(C)C[C@@H](NC(=O)[C@@H](CC(C)C)NC(=O)[C@@H](CCCCN)NC(=O)[C@@H](CCC(=O)O)NC(=O)[C@@H](Cc1ccc(C(F)(F)F)cc1)NC(=O)[C@@H](CC(N)=O)NC(=O)[C@@H](C)NC(=O)[C@@H](Cc1ccc(O)cc1)NC(=O)[C@@H](Cc1c[nH]c2cc(F)ccc12)NC(=O)[C@@H](C)NC(=O)[C@H](N)[C@H](C)O)C(=O)N[C@H](CCCNC(=N)N)C(N)=O [^DPMI-δ, reference compound]	no p53 activation	–	–	–	–	–	–	–	–
20	< 1	34.6	< 1	2.1	CC(C)C[C@H]1NC(=O)[C@@H](CC(C)C)NC(=O)[C@@](C)(NC(=O)[C@@H](CCC(=O)O)NC(=O)[C@@H](Cc2ccc(C(F)(F)F)cc2)NC(=O)[C@@H](CC(N)=O)NC(=O)[C@@]2(C)CCC/C=C\CCC[C@@](C)(N)C(=O)N[C@H](C)C(=O)N[C@H](Cc3c[nH]c4cc(F)ccc34)C(=O)N[C@H](Cc3ccc(O)cc3)C(=O)N2)CCC/C=C\CCC[C@](C)(C(N)=O)NC1=O [^DPMI-δ (1-5,9-12)] (H-[R5][dA][dTrp(6-F)][dY][R5][dN][dPhe(4-CF3)][dE][S5][dL][dL][R5]-NH2; staple (Z) 1-5, 9-12)	–	–	–	–	–	–	negligible counter screen activity	≥ 50	LDH leakage (HCT116 cells): No detectable LDH leakage
46.7	> 500	–	> 500	–	CC(C)C[C@@H](NC(=O)[C@@H](CC(C)C)NC(=O)[C@@H](CCCCN)NC(=O)[C@@H](CCC(=O)O)NC(=O)[C@@H](Cc1ccc(C(F)(F)F)cc1)NC(=O)[C@@]1(C)CCC/C=C\CCC[C@@](C)(NC(=O)[C@H](N)[C@H](C)O)C(=O)N[C@H](Cc2c[nH]c3cc(F)ccc23)C(=O)N[C@H](Cc2ccc(O)cc2)C(=O)N[C@H](C)C(=O)N1)C(=O)N[C@H](CCCNC(=N)N)C(N)=O [^DPMI-δ (2-6)] (H-[dT][R5][dTrp(6-F)][dY][dA][R5][dPhe(4-CF3)][dE][dK][dL][dL][dR]-NH2; staple (Z) 2-6)	unable to activate cellular p53	–	–	–	no binding	no binding	–	13.9	binding to MDM2 in SPR (MDM2 [4]): non-binder
24.7	< 1	13.7	< 1	4.5	CC(C)C[C@@H](NC(=O)[C@@H](CC(C)C)NC(=O)[C@@H](CCCCN)NC(=O)[C@@H](CCC(=O)O)NC(=O)[C@@H](Cc1ccc(C(F)(F)F)cc1)NC(=O)[C@@H](CC(N)=O)NC(=O)[C@@]1(C)CCCCCC/C=C\CCC[C@@](C)(N)C(=O)N[C@H](C)C(=O)N[C@H](Cc2c[nH]c3cc(F)ccc23)C(=O)N[C@H](Cc2ccc(O)cc2)C(=O)N1)C(=O)N[C@H](CCCNC(=N)N)C(N)=O [^DPMI-δ (1-5)]	–	3.04	-11.6	-15.8	–	–	didn't exhibit activity	≥ 50	EC50 ([1]; listed as DPMI-δ(1-5)): 17.5 µM; Kd (MDM2 [5]; apparent Kd, competition with FAM-labeled 12/1 peptide): 13.2 nM
–	–	–	–	–	[dT][S8][dTrp(6-F)][dY][dA][dN][dPhe(4-CF3)][dE][R5][dL][dL][dR]-NH2 (staple 2-9) [^DPMI-δ(2-9)]	–	–	–	–	–	–	–	–	P53 activity EC50 (µM) (2% FBS) 16 H [7]: > 50 µM

Molecule	CD (% helicity) [2] [%]	Kd (MDM2 [4]; Table 1) [nM]	EC50 [1] [µM]	Kd (MDM2 [4]; Table 2) [nM]	Kd (MDM4) [nM]	p53 activation in reporter cells [1]	ITC TΔS [3] [kcal/mol]	ITC ΔG [3] [kcal/mol]	ITC ΔH [3] [kcal/mol]	binding to MDM2 in FP assay (MDM2 [5])	binding to MDMX in FP assay (MDM4)	counterscreen activity [6]	EC50 [6] [µM]	also measured
CC(C)C[C@@H](NC(=O)[C@@]1(C)CCC/C=C\CCC[C@@](C)(NC(=O)[C@@H](C)NC(=O)[C@@H](Cc2ccc(O)cc2)NC(=O)[C@@H](Cc2c[nH]c3cc(F)ccc23)NC(=O)[C@@H](C)NC(=O)[C@H](N)[C@H](C)O)C(=O)N[C@H](Cc2ccc(C(F)(F)F)cc2)C(=O)N[C@H](CCC(=O)O)C(=O)N[C@H](CCCCN)C(=O)N1)C(=O)N[C@H](CCCNC(=N)N)C(N)=O [^DPMI-δ (6-10)]	39.9	59	–	–	–	–	-1.86	-11.2	-9.35	no binding; also recorded: non-binder	no binding	–	–	–
